Results from paper PMC7602804 (Nutrients, 2020).
No end group written: not given here.

System: Caco-2 monolayers
Experiment: Apical to basolateral transport of milk peptides across Caco-2 monolayers (LC-MS/MS of basolateral medium)
Type: in vitro ADME, human
Conditions: 2.5 h
Protocol: The human colorectal adenocarcinoma cell line, Caco-2, was obtained from DSMZ (Braunschweig, Germany). The cells were grown to 50–60% confluence in Dulbecco’s Modified Eagle Medium (DMEM) Glutamax cell culture medium, supplemented with 10% heat-inactivated fetal bovine serum, 100 units/mL of penicillin and 100 μg/mL of streptomycin (all from Invitrogen, Carlsbad, CA, USA) in a humidified 5% CO2/95% air atmosphere at 37 °C. The cells used in the experiments were between passages 30 and 40.
The Caco-2 cells used for transport studies were seeded in polyethylene terephthalate culture inserts, with a pore size of 0.4 μm and a growth area of 0.33 cm^2 at a density of approximately 25,000 cells/insert. The Caco-2 cells were grown for three weeks on the porous membrane before they were used for transepithelial transport. The integrity of the monolayers was confirmed by measuring the TEER using a Millicell ERS-2 volt ohmmeter. Only Caco-2 monolayers with TEER values above 400 Ω cm^2 were used for the transport analysis.
Following the TEER value measurement, the Caco-2 and PBEC monolayers were gently washed twice with phosphate-buffered saline, and the transport medium (Hanks’ Balanced Salt solution supplemented with 10 mM of HEPES) was added to the apical and basolateral compartments. The inserts were incubated for 15 min or 2.5 h with the purified milk peptides (0.1 mg/mL) or the synthetic PIGSENSEKTTMPLW peptide (2 µg/mL), after which medium from the apical and basolateral compartments were collected for liquid chromatography tandem mass spectrometry (LC-MS/MS) analysis. Inserts incubated with a medium without peptides served as the control in the transport experiments. Membrane integrity was validated by addition of D-[1-^14C]-Mannitol (3.5 µM, 56.8 mCi/mmol) (Perkin Elmer, Waltham, MA, USA) to the upper chamber of the culture inserts with or without milk peptides for 2.5 h. The passive permeability experiments were performed on four or five individual culture inserts. Basolateral samples were mixed with Ultima Gold liquid scintillation fluid (Perkin Elmer) and counted in a Tri-Carb 2810 TR scintillation counter (Perkin Elmer). The apparent permeability coefficient (Papp, cm/s) was determined as Papp = (dQ/dt)/(AC0) where dQ/dt is the steady state flux (cpm/s), A is the surface area of the cell culture insert membrane and C0 is the initial concentration in the apical compartment (cpm/mL).
LC-MS/MS analysis was performed on a TripleTOF 6600 mass spectrometer equipped with an Exigent nanoLC 415 system (AB Sciex, Les Ulis, France). All samples were micro-purified using 3 M Empore C18 discs packed in pipette tips. The lyophilized samples were dissolved in 0.1% formic acid, injected on a trap column (2 cm × 100 µm inner diameter) and separated on an analytical column packed in-house in a pulled emitter (15 cm × 75 µm inner diameter). All columns were packed with ReproSil-Pur C18-AQ 3 µm resin (courtesy of Dr. Marisch, Ammerbuch-Entringen, Germany). Peptides were eluted directly into the mass spectrometer with a linear gradient from 5 to 35% solvent B (0.1% formic acid in acetonitrile) for 20 min with a flowrate of 250 nL/min, followed after 10 min with 100% solvent B. Data files were converted to Mascot Generic Format using the Raw Converter (version 1.1.0.18) (http://fields.scripps.edu/rawconv/) or the AB Sciex MS Data Converter beta 1.1 (AB Sciex, Les Ulis, France). The generated peak lists were searched against the Bos taurus proteome (UniProt database, https://www.uniprot.org)) using an in-house Mascot search engine (Matrix Science, London, UK). The searches were made without specifying a protease and with oxidation (Met) and phosphorylation (ST) as variable modifications. Peptide tolerance was set to 10 ppm and MS/MS tolerance was set to 0.2 Da. […]

PIGSENSEKTTMPLW [PIGSENSEKTTMPLW]
Peptide identified in the basolateral chamber of Caco-2 monolayers (transported) (Caco-2, 3 weeks on PET inserts 0.4 μm, TEER above 400 Ω cm^2, A-B, mix of 192 purified milk peptides 0.1 mg/mL apical, HBSS + 10 mM HEPES, LC-MS/MS of basolateral medium, identified in two out of three experiments): identified in the basolateral chamber | Fate of synthetic peptide during transport over Caco-2 monolayers (synthetic peptide 2 µg/mL apical, LC-MS/MS of basal medium): cleaved by carboxypeptidases during the transport
